# Laboratory results from patent US6153589A, “2,3-epoxy alcohols, acids and derivatives as anti retroviral chemotherapeutic agents” (The United States of America as represented by the …, priority 1992, dated 2000).
# Read-outs that look alike come from different tables or passages of the source.
# Columns and labels:
# HIV-2 protease = test: HIV protease cleavage of nonapeptide (HPLC); assay type: biochemical; settings: 0.5 μl of 10 μg/μl inhibitor in DMSO per 10 μl reaction; pH 6.5, room temperature; pentapeptide product relative to DMSO control; sampled at ca. 16 and 40 hr (time not given)
# Outline: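 Nonapeptide substrate Val-Ser-Gln-Asn-Tyr-Pro-Ile-Val-Gln-NH2 incubated with protease (ca. 100 ng) in 200 mM sodium phosphate, 1 M NaCl, 5% glycerol, 0.25% NP-40, pH 6.5, at room temperature with inhibitor added from a 10 μg/μl DMSO stock. Samples taken at ca. 16 and 40 h; RP-HPLC (206 nm) measured pentapeptide product relative to DMSO control.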
# porcine Renin = target: T1, porcine Renin (Sus scrofa, UniProt A0A287APG1); test: Porcine Renin cleavage of porcine tetradecapeptide (HPLC); assay type: biochemical; settings: 0.5 μl of 50 μg/μl inhibitor in DMSO in 50 μl; pH 6.00, room temperature, 70 min; relative to uninhibited control
# T1 construct: purchased Sigma
# Rous Sarcoma Virus = settings: in vitro; literature report; cited from earlier work
# Murine Leukemia Virus = settings: in vitro; literature report; cited from earlier work
# HIV infected cells = settings: literature report; cited from earlier work
# fatty acid synthesis = settings: literature report; cited from earlier work
# [1] = literature report; cited from earlier work
# HIV1 IIIb = test: microbe, parasite or virus in culture; assay type: cell-based; settings: Human immunodeficiency virus 1, IIIB; for viability at 35.2 µg/mL: 35.2 ug/ml; for viability at 20.7 µg/mL: 20.7 ug/ml; for viability at 3.52 µg/mL: 3.52 ug/ml
# Outline: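 Human host cells infected with HIV1 IIIb (virus-producing H9 cells or cell-free virus) and incubated seven days with compound. Viable cells measured by XTT formazan absorbance; response expressed as % of uninfected controls against virus kill %. Some cultures redosed after 3 days.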
# T1 sequence (A0A287APG1 24-407): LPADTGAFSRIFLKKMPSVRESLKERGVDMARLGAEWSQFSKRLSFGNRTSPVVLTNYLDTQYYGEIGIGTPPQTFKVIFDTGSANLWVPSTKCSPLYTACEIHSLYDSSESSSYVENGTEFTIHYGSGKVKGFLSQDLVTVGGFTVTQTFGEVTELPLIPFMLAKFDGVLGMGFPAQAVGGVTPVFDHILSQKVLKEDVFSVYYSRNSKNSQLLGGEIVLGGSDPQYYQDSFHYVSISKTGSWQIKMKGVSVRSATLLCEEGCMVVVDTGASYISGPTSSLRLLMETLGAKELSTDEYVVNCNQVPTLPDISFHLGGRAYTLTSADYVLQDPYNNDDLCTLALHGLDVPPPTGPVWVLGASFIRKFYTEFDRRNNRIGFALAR
SMILES,Percent Control Cleavage of Nonapeptide HIV-1 Cleavage Site Fragment (HIV-2 protease),Percent control (tetrapeptide produced) (porcine Renin),antiretroviral activity against Rous Sarcoma Virus (Rous Sarcoma Virus),antiretroviral activity against Murine Leukemia Virus (Murine Leukemia Virus),inhibition of viral polyprotein processing (HIV infected cells),inhibition of fatty acid synthesis (fatty acid synthesis),toxicity [1],"viability at 35.2 µg/mL (HIV1 IIIb; 168 h, read-out: Antiviral Effect (viable cells as % of uninfected controls), run 5, source V (cell free virus), virus kill 54.6%)","viability at 20.7 µg/mL (HIV1 IIIb; 168 h, read-out: Antiviral Effect (viable cells as % of uninfected controls), run 6, source V (cell free virus), virus kill 54.6%)","viability at 3.52 µg/mL (HIV1 IIIb; 168 h, read-out: Antiviral Effect (viable cells as % of uninfected controls), run 7, source V (cell free virus), virus kill 26.0%)","viability at 20.7 µg/mL (HIV1 IIIb; 168 h, read-out: Antiviral Effect (viable cells as % of uninfected controls), run 8, source V (cell free virus), virus kill 26.0%)","viability at 1.34 µg/mL (HIV1 IIIb; 168 h, read-out: Antiviral Effect (viable cells as % of uninfected controls), run 9, 1.34 ug/ml, source V (cell free virus), virus kill 20.0%)","viability at 0.135 µg/mL (HIV1 IIIb; 168 h, read-out: Antiviral Effect (viable cells as % of uninfected controls), run 10*, 0.135 ug/ml, source V (cell free virus), virus kill 23.0%, culture redosed with compound after 3 days)","viability at 35.2 µg/mL (HIV1 IIIb; H9, 168 h, read-out: Antiviral Effect (viable cells as % of uninfected controls), run 1, source C (virus producing H9 cells), virus kill 16.0%)","viability at 20.7 µg/mL (HIV1 IIIb; H9, 168 h, read-out: Antiviral Effect (viable cells as % of uninfected controls), run 2, source C (virus producing H9 cells), virus kill 16.0%)","viability at 3.52 µg/mL (HIV1 IIIb; H9, 168 h, read-out: Antiviral Effect (viable cells as % of uninfected controls), run 3, source C (virus producing H9 cells), virus kill 9.0%)","viability at 2.07 µg/mL (HIV1 IIIb; H9, 168 h, read-out: Antiviral Effect (viable cells as % of uninfected controls), run 4, 2.07 ug/ml, source C (virus producing H9 cells), virus kill 9.0%)"
"C/C=C/C/C=C/CCC(=O)[C@H]1O[C@H]1C(N)=O [Cerulenin, 4-Oxo-2R,3S-epoxy-trans,trans-2,5-dodecadienyl amide]",10%,68%,exhibit antiretroviral activity,exhibit antiretroviral activity,inhibit viral polyprotein processing,potent inhibitor of fatty acid synthesis,relatively high toxicity,,,,,,,,,,
"CCCCCCCCC[C@@H]1O[C@@H]1C(N)=O [Example 24, (2S-cis)-3-Nonyloxiranecarboxy Amide]",113%,106%,,,,,,73%,71.4%,28.1%,34%,41.7%,114%,73%,67.4%,11.3%,10.5%
